This assay addresses α-glucosidase. Put plainly: enzyme inhibition assay with p-nitrophenyl-D-glycopyranoside substrate. It counts as biochemical.

This passage reports IC50 results from article PMC9923641 (Molecular Biotechnology, 2023).

What is called IC50 is the concentration needed to halve the response being measured. A high value points to lower potency. For `COc1cccc(O)c1-c1cc(=O)c2c(O)c(OC)c(OC)c(OC)c2o1` [Skullcapflavone II], inhibition was half-maximal at 95 ± 11.5 nM (IC50).
The result for `COc1cc(O)c2c(=O)cc(-c3ccccc3O)oc2c1OC` [Skullcapflavone I] reads 103 ± 8.43 nM.
